According to article PMC1664607 (PLoS Medicine, 2006):
Values after ≈ are worked out from the molar mass of the structure shown. Like-named read-outs stand apart in the source and are kept apart here.

Legend:
E. coli WP2 uvr A = experiment: Bacterial reverse mutation (BRM) test; format: cell-based
Description: (§1) The BRM test was performed in accordance with OECD Guideline 471 using Salmonella tyiphimurium TA98, TA100, TA1535, and TA1537, and Escherichia coli WP2 uvrA [11]. Each bacterial strain was pre-cultured at 37 °C for 18 h using a nutrient broth (Nissui Pharmaceutical; http://www.nissui-pharm.co.jp/index_e.html). After adjustment to 2.4 at OD660 nm, each bacterial suspension was added to a test tube containing the designated compound in the absence or presence of rat liver microsome (S9) mix. After a 20-min incubation at 37 °C, top agar was added to each test tube and the contents were poured into minimum essential medium (Oriental Yeast; http://www.oyc.co.jp/e/index.htm). The number of revertants was counted 48 h after incubation at 37 °C.

S. typhimurium TA1535 = experiment: Bacterial reverse mutation (BRM) test; format: cell-based
Description: as §1

S. typhimurium TA1537 = experiment: Bacterial reverse mutation (BRM) test; format: cell-based
Description: as §1

S. typhimurium TA98 = experiment: Bacterial reverse mutation (BRM) test; format: cell-based
Description: as §1

[1] = system: Salmonella tyiphimurium TA98, TA100, TA1535, and TA1537, and Escherichia coli WP2 uvrA; experiment: Bacterial reverse mutation (BRM) test, overall result; format: cell-based; conditions: absence and presence of S9 mix, OECD Guideline 471
Description: as §1

[2] = system: M. tuberculosis ATCC 35837 (H37Rv-E-R); experiment: microbe, parasite or virus in culture; format: cell-based; conditions: Mycobacterium tuberculosis, 336 h
[3] = system: M. tuberculosis ATCC 35820 (H37Rv-S-R); experiment: microbe, parasite or virus in culture; format: cell-based; conditions: Mycobacterium tuberculosis, 336 h
[4] = system: clinically isolated M. tuberculosis (27 test strains); experiment: Checkerboard method, combination with existing TB drugs; format: cell-based; conditions: antagonism = FIC index >4.0
From the text: In addition, the efficacy of OPC-67683 in combination with currently used anti-TB drugs RFP, INH, EB, and SM was examined in vitro using the checkerboard method.

CYP2A6 = target: T1, CYP2A6 (Homo sapiens, UniProt P11509); experiment: Coumarin 7-hydroxylation in human liver microsomes; format: in vitro ADME; conditions: 2 μM coumarin
T1 construct: Standard incubation mixtures of 0.5 ml contained microsomal protein (0.1–0.5 mg); from tissue; host or cells: pooled human liver microsomes (ten donors)
T1 sequence (P11509 1-494): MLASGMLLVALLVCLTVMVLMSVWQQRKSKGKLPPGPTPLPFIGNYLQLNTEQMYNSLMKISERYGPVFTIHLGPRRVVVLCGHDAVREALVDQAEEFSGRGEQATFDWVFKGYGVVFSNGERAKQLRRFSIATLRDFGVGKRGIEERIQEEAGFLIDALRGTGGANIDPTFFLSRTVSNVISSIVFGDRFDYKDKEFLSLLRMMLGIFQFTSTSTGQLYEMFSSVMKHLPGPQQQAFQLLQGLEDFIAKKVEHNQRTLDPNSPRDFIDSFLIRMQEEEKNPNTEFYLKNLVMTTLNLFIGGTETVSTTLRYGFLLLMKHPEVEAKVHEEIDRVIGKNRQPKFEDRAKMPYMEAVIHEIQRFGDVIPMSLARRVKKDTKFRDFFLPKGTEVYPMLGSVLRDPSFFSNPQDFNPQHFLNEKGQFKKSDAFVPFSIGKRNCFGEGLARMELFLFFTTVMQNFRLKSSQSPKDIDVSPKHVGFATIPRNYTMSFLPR

CYP2C19 = target: T2, CYP2C19 (Homo sapiens, UniProt P33261); experiment: S-mephenytoin 4′ -hydroxylation in human liver microsomes; format: in vitro ADME; conditions: 100 μM S-mephenytoin
T2 construct: Standard incubation mixtures of 0.5 ml contained microsomal protein (0.1–0.5 mg); from tissue; host or cells: pooled human liver microsomes (ten donors)

CYP2D6 = target: T3, CYP2D6 (Homo sapiens, UniProt P10635); experiment: Bufuralol 1′ -hydroxylation in human liver microsomes; format: in vitro ADME; conditions: 20 μM bufuralol
T3 construct: Standard incubation mixtures of 0.5 ml contained microsomal protein (0.1–0.5 mg); from tissue; host or cells: pooled human liver microsomes (ten donors)

CYP2B6 = target: T4, CYP2B6 (Homo sapiens, UniProt P20813); conditions: […] 7-benzyloxyresorufin
T4 sequence (P20813 1-491): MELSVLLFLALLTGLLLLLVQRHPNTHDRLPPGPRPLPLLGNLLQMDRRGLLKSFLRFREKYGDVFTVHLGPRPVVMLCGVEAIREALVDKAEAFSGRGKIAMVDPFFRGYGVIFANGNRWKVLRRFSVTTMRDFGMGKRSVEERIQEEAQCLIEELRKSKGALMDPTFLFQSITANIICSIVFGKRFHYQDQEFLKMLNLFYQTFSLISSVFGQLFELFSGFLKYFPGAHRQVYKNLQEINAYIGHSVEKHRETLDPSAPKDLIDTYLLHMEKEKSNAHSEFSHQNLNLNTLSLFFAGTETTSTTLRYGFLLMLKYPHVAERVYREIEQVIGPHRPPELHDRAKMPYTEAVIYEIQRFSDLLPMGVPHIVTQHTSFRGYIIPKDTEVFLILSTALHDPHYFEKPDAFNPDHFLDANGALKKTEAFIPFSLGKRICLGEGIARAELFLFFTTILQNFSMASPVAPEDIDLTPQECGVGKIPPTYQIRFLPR

T3 sequence (P10635 whole entry): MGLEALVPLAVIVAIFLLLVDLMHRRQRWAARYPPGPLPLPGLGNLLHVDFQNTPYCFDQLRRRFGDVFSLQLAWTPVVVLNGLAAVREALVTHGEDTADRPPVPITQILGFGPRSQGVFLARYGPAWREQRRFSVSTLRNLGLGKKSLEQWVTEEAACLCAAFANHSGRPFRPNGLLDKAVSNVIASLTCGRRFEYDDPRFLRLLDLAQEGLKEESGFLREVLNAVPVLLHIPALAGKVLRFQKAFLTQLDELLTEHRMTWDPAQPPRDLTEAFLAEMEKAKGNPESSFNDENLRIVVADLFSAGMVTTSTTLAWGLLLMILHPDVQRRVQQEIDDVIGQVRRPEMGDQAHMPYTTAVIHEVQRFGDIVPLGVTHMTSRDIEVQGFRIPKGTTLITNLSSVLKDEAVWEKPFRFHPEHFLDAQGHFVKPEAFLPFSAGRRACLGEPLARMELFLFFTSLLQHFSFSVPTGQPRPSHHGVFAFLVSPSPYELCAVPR
T2 sequence (P33261 whole entry): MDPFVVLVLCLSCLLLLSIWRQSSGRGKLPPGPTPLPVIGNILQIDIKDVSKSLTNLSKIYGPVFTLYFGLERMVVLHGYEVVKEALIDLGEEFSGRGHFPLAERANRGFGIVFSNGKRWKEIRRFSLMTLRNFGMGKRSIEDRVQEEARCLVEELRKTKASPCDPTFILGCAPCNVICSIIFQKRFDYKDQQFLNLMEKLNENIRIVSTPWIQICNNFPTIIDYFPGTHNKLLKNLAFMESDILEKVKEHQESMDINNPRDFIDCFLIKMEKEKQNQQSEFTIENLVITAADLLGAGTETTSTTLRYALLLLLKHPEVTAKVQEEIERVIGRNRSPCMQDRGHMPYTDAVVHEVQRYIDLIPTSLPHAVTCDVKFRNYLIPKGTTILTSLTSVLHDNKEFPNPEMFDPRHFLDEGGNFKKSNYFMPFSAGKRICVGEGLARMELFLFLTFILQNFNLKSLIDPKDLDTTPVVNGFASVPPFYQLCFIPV

## C[C@]1(COc2ccc(N3CCC(Oc4ccc(OC(F)(F)F)cc4)CC3)cc2)Cn2cc([N+](=O)[O-])nc2O1 [OPC-67683, (R)-2-methyl-6-nitro-2-(4-[4-(4-trifluoromethoxyphenoxy)piperidin-1-yl]phenoxymethyl}-2,3-dihydroimidazo[2,1-b]oxazole]
E. coli WP2 uvr A; S9 mix +, 312.5 μg/plate
  Revertants/Plate: 23 Revertants/Plate
E. coli WP2 uvr A; S9 mix +, 625 μg/plate
  Revertants/Plate: 20 Revertants/Plate
E. coli WP2 uvr A; S9 mix +, 1,250 μg/plate
  Revertants/Plate: 25 Revertants/Plate
E. coli WP2 uvr A; S9 mix +, 2,500 μg/plate
  Revertants/Plate: 23 Revertants/Plate
E. coli WP2 uvr A; S9 mix +, 5,000 μg/plate
  Revertants/Plate: 29 Revertants/Plate
E. coli WP2 uvr A; S9 mix −, 312.5 μg/plate
  Revertants/Plate: 23 Revertants/Plate
E. coli WP2 uvr A; S9 mix −, 625 μg/plate
  Revertants/Plate: 25 Revertants/Plate
E. coli WP2 uvr A; S9 mix −, 1,250 μg/plate
  Revertants/Plate: 20 Revertants/Plate
E. coli WP2 uvr A; S9 mix −, 2,500 μg/plate
  Revertants/Plate: 24 Revertants/Plate
E. coli WP2 uvr A; S9 mix −, 5,000 μg/plate
  Revertants/Plate: 24 Revertants/Plate
S. typhimurium TA1535; S9 mix +, 625 μg/plate
  Revertants/Plate: 6 Revertants/Plate
S. typhimurium TA1535; S9 mix +, 2,500 μg/plate
  Revertants/Plate: 8 Revertants/Plate
S. typhimurium TA1535; S9 mix +, 5,000 μg/plate
  Revertants/Plate: 9 Revertants/Plate
S. typhimurium TA1535; S9 mix −, 312.5 μg/plate
  Revertants/Plate: 6 Revertants/Plate
S. typhimurium TA1535; S9 mix −, 625 μg/plate
  Revertants/Plate: 9 Revertants/Plate
S. typhimurium TA1535; S9 mix −, 2,500 μg/plate
  Revertants/Plate: 7 Revertants/Plate
S. typhimurium TA1535; S9 mix −, 5,000 μg/plate
  Revertants/Plate: 6 Revertants/Plate
S. typhimurium TA1537; S9 mix +, 312.5 μg/plate
  Revertants/Plate: 73 Revertants/Plate
S. typhimurium TA1537; S9 mix +, 625 μg/plate
  Revertants/Plate: 72 Revertants/Plate
S. typhimurium TA1537; S9 mix +, 1,250 μg/plate
  Revertants/Plate: 66 Revertants/Plate
S. typhimurium TA1537; S9 mix +, 2,500 μg/plate
  Revertants/Plate: 63 Revertants/Plate
S. typhimurium TA1537; S9 mix +, 5,000 μg/plate
  Revertants/Plate: 74 Revertants/Plate
S. typhimurium TA1537; S9 mix −, 312.5 μg/plate
  Revertants/Plate: 60 Revertants/Plate
S. typhimurium TA1537; S9 mix −, 625 μg/plate
  Revertants/Plate: 62 Revertants/Plate
S. typhimurium TA1537; S9 mix −, 1,250 μg/plate
  Revertants/Plate: 54 Revertants/Plate
S. typhimurium TA1537; S9 mix −, 2,500 μg/plate
  Revertants/Plate: 61 Revertants/Plate
S. typhimurium TA1537; S9 mix −, 5,000 μg/plate
  Revertants/Plate: 63 Revertants/Plate
S. typhimurium TA98; S9 mix +, 312.5 μg/plate
  Revertants/Plate: 31 Revertants/Plate
S. typhimurium TA98; S9 mix +, 625 μg/plate
  Revertants/Plate: 31 Revertants/Plate
S. typhimurium TA98; S9 mix +, 1,250 μg/plate
  Revertants/Plate: 30 Revertants/Plate
S. typhimurium TA98; S9 mix +, 2,500 μg/plate
  Revertants/Plate: 31 Revertants/Plate
S. typhimurium TA98; S9 mix +, 5,000 μg/plate
  Revertants/Plate: 35 Revertants/Plate
S. typhimurium TA98; S9 mix −, 312.5 μg/plate
  Revertants/Plate: 29 Revertants/Plate
S. typhimurium TA98; S9 mix −, 625 μg/plate
  Revertants/Plate: 29 Revertants/Plate
S. typhimurium TA98; S9 mix −, 1,250 μg/plate
  Revertants/Plate: 34 Revertants/Plate
S. typhimurium TA98; S9 mix −, 2,500 μg/plate
  Revertants/Plate: 37 Revertants/Plate
S. typhimurium TA98; S9 mix −, 5,000 μg/plate
  Revertants/Plate: 31 Revertants/Plate
[1]
  Mutagenic potential in the BRM test: did not show mutagenicity
[2]
  MIC: 0.012 µg/mL (≈ 0.0225 µM)
[3]
  MIC: 0.012 µg/mL (≈ 0.0225 µM)
[4]
  Antagonistic activity in combination with RFP, INH, EB, and SM: no antagonistic activity
CYP2A6; 10 μM
  Percent of Control: 103.1% of Control
CYP2A6; 30 μM
  Percent of Control: 97.8% of Control
CYP2C19; 10 μM
  Percent of Control: 113.3% of Control
CYP2C19; 100 μM
  Percent of Control: 107.6% of Control
CYP2D6; 10 μM
  Percent of Control: 99.1% of Control
CYP2D6; 30 μM
  Percent of Control: 103.3% of Control
CYP2D6; 100 μM
  Percent of Control: 97.8% of Control
CYP2B6; 10 μM
  Percent of Control: 118.3% of Control
CYP2B6; 30 μM
  Percent of Control: 112.8% of Control
CYP2B6; 100 μM
  Percent of Control: 122.3% of Control
